Reference: patent US10736859B2, “Eutectic formulations of cyclobenzaprine hydrochloride and amitriptyline hydrochloride” (Tonix Pharma Holdings Limited, priority 2013, dated 2020)
Entries after “also recorded” stand apart in the source; their conditions may differ.

How the values were obtained:
Type in all cases: physicochemical
[1] = DSC compatibility of Cyclobenzaprine HCl (API) with excipients, milled mixtures (Example 1); details: for Excipient reactions with API, Mixture 1:1: Cyclobenzaprine HCl + excipient 1:1, ground in agate mortar; for Excipient reactions with API, Mixture in formulation ratio: Cyclobenzaprine HCl + excipient in formulation ratio
Procedure: Thermal analytical techniques were used to assess the compatibility of a drug product (tablet) containing Cyclobenzaprine HCl (API). The compatibility assessment was carried out between the API and a number of possible excipients in a 1:1 ratio. Based on the thermal events recorded for each component and for the mixtures, the analyses were carried out by investigating the peaks recorded by differential scanning calorimetry (DSC) in mixture between API and the excipients. Differences in thermal profiles between the single compound and the related mixture obtained after milling the products in an agate mortar were evaluated. Stability and compatibility also were also assessed on the final drug product after stress conditions at 40° C. and 50° C. for one month.
A “formulation ratio” mixture was made with the following composition: 2.40 mg Cyclobenzaprine HCl, 31.55 mg Mannitol and Maize starch, 2.00 Crospovidone, 0.50 mg colloidal silica, 0.050 mg Sodium Stearyl Fumarate, and 1.05 Potassium hydrogen phosphate.
Aliquots of API and each excipient were weighed in a ratio of 1:1 (unless specified otherwise) and ground in an agate mortar. The homogeneous mixtures then were analyzed.
(§1) The DSC heating curves were obtained with a TA 821 DSC Mettler instrument under the following conditions: • Heating rate: 10° C./min • Ambient: Nitrogen 30 mL/min • Sample holder: normal open aluminum pan • Temperature range: from 25° C. to 250° C. • Instrument calibration: Indium sample purity 99.999%

[2] = DSC, FT-IR/ATR and XRPD compatibility of Cyclobenzaprine HCl with additional excipients, mixed (A) and milled (B) 1:1 mixtures (Example 2); details: for Interactions between Cyclobenzaprine HCl and excipients, Mixture 1:1 (mixed): mixture A, mechanical mixing only; for Interactions between Cyclobenzaprine HCl and excipients, Mixture 1:1 (mixed) / Interactions between Cyclobenzaprine HCl and excipients, Mixture 1:1 (milled): DSC; for Interactions between Cyclobenzaprine HCl and excipients, Mixture 1:1 (milled): mixture B, ground in agate mortar
Procedure: As described above, thermal analytical techniques were further used to assess the compatibility of a drug product (tablet) containing Cyclobenzaprine HCl (API). The compatibility assessment was carried out between the API and additional excipients in a 1:1 ratio. The 1:1 API-excipient mixtures were formed in two different ways: first, by mixing only, and second, by strong milling in an agate mortar. The thermal behavior recorded in the two different mixtures were compared with those of the single components. On the basis of thermal events recorded for each component and for the mixtures, the analyses were carried out by investigating the meanings of the peaks recorded by differential scanning calorimetry (DSC) in mixtures between the API and the excipients. Furthermore, in order to define the nature of the interaction, the Fourier Transformate Infra Red Spectroscopy with Total Attenuated Reflectance (FT-IR/ATR) and X-ray powder diffraction (XRPD) of some samples (API, excipient, and mixed and milled mixtures) was carried out and compared.
Aliquots of API and each excipient were weighed in a ratio of 1:1 and ground in an agate mortar. Then, the homogeneous mixtures were analyzed. These sample mixtures were labeled “B”, while the mechanical-only mixtures were labeled “A.”
as §1, with “by” for “with a”, “99.999% Fourier Transformate Infra Red Spectroscopy with Total Attenuated Reflectance (FT-IR/ATR)” for “99.999%”
The FT-IR spectra were collected with a Perkin Elmer spectrum Two instrument with air as background and 4 cm^−1 resolution.
X-ray powder diffraction (XRPD) tests were performed with the ULTIMA IV instrument (Rigaku), laying the sample on a static sample holder. The X-ray focusing slit has a variable width, interlocked with the q value. The X-ray tube has a Copper target, with a current intensity of 40 mA and a voltage of 40 kV. Radiation was generated by the Cockcroft-Walton method, and was constituted by Kα1 (1.540562 Å) and Kα2 (1.544398 Å). The analytical conditions were: • Fixed Time; sampling width 0.02 deg, scanning rate 1.3 s/step, 2 q range 3.35 deg and sample holder; amorphous glass equiangular 9200/2G, 0.2 mm deep. The sample was pressed with a glass plate.

[3] = DSC compatibility of Amitriptyline HCl with excipients, 1:1 milled mixtures (Example 4); details: Amitriptyline HCl + excipient 1:1, milled in agate mortar
Procedure: Thermal analytical techniques were used to assess the compatibility of the drug product amitriptyline HCl. The compatibility assessment was carried out between the API and the excipients in a 1:1 ratio. On the basis of thermal events recorded for each component and for the mixtures, the analyses were carried out by investigating the peaks recorded by DSC in mixtures between API and the excipients. Differences in thermal profiles between the single compound and the related mixtures were obtained after milling the products in an agate mortar.
DSC was performed substantially as described in Examples 1 and 2. The following raw materials were used: • Amitriptyline HCl • Sodium stearyl fumarate • Stearic acid • Glycerol dibehenate • Magnesium stearate • Pearlitol flash • Pearlitol 200 SO/Mannitol • Unipure DW/Com starch pregelatinized • Crospovidone-Kollidon CL • Silicon Colloidal/Aerosil 200 • Sodium phosphate dibasic • Sodium bicarbonate • Sodium carbonate • Sodium Phosphate dodecahydrate • Sodium Phosphate anhydrous.

[4] = listed as sodium phosphate anhydrous
[5] = listed as Trisodium Citrate anhydrous
[6] = listed as trisodium citrate dihydrate, citrate dihydrate
[7] = listed as Sodium Stearyl fumarate, fumarate
[8] = listed as sodium phosphate dihydrate, Sodium phosphate dihydrate

With `O=P([O-])([O-])O.[K+].[K+]` [Potassium phosphate dibasic, dipotassium hydrogen phosphate] the “Excipient reactions with API, Mixture 1:1” value [1] was “Acid - base interaction”, the “Excipient reactions with API, Mixture 1:1” value ([1]; listed as Potassium phosphate bibasic) was “chemical interaction (acid-base)” and the “Excipient reactions with API, Mixture in formulation ratio” value [1] was “Low chemical”. The “Excipient reactions with API, Mixture in formulation ratio” value ([1]; listed as K2HPO4) was “small interaction”.
With `O=P([O-])([O-])O.[Na+].[Na+]` [Di Sodium phosphate anhydrous] the “Interactions between Cyclobenzaprine HCl and excipients, Mixture 1:1 (mixed)” value [2] was “Low chemical”, the “Interactions between Cyclobenzaprine HCl and excipients, Mixture 1:1 (mixed)” value [2, 4] was “physical interaction” and the “Interactions between Cyclobenzaprine HCl and excipients, Mixture 1:1 (milled)” value [2] was “Low chemical”. The “Interactions between Cyclobenzaprine HCl and excipients, Mixture 1:1 (milled)” value [2, 4] was “physical interaction” and the “Interactions between API and excipients, Mixture in formulation (1:1 ratio)” value ([3]; listed as Sodium phosphate anhydrous) was “No physical interaction”.
In the case of Magnesium stearate, the “Interactions between API and excipients, Mixture in formulation (1:1 ratio)” value [3] is reported as “small physical interaction”.
For `O.O.O.O.O.O.O.O=P([O-])([O-])O.[Na+].[Na+]` [Di Sodium phosphate heptahydrate], the “Interactions between Cyclobenzaprine HCl and excipients, Mixture 1:1 (mixed)” value [2] was “Chemical” and the “Interactions between Cyclobenzaprine HCl and excipients, Mixture 1:1 (milled)” value [2] was “Chemical”.
With Sodium Phosphate dodecahydrate the “Interactions between API and excipients, Mixture in formulation (1:1 ratio)” value [3] was “physical/chemical interaction”.
With `O=C([O-])CC(O)(CC(=O)[O-])C(=O)[O-].[Na+].[Na+].[Na+]` [Tri Sodium Citrate anhydrous, Trisodium citrate anhydrous] the “Chemical acid-base reaction by FT-IR/ATR” value ([2]; mixture A 1:1 with Cyclobenzaprine HCl, room temperature, chlorohydrate band 3000-2000 cm-1) was “no chemical acid-base reaction had occurred”, the “Interactions between Cyclobenzaprine HCl and excipients, Mixture 1:1 (mixed)” value [2] was “Physical” and the “Interactions between Cyclobenzaprine HCl and excipients, Mixture 1:1 (mixed)” value [2, 5] was “physical complex melting at a lower temperature”. The “Interactions between Cyclobenzaprine HCl and excipients, Mixture 1:1 (milled)” value [2] was “Physical” and the “Interactions between Cyclobenzaprine HCl and excipients, Mixture 1:1 (milled)” value [2, 5] was “physical complex melting at lower temperature”.
For `OC[C@@H](O)[C@@H](O)[C@H](O)[C@@H](O)CO` [Sorbitol], the “Interactions between Cyclobenzaprine HCl and excipients, Mixture 1:1 (mixed)” value [2] was “Chemical”, the “Interactions between Cyclobenzaprine HCl and excipients, Mixture 1:1 (mixed)” value ([2]; listed as sorbitol) was “interaction was observed, due to the solubilization of API by sorbitol” and the “Interactions between Cyclobenzaprine HCl and excipients, Mixture 1:1 (milled)” value [2] was “Chemical”. The “Interactions between Cyclobenzaprine HCl and excipients, Mixture 1:1 (milled)” value ([2]; listed as sorbitol) was “interaction was observed, due to the solubilization of API by sorbitol”.
For `O.O.O=C([O-])CC(O)(CC(=O)[O-])C(=O)[O-].[Na+].[Na+].[Na+]` [Trisodium citrate dihydrate], the “Interactions between Cyclobenzaprine HCl and excipients, Mixture 1:1 (mixed)” value ([2]; citrate dihydrate) was “Chemical”, the “Interactions between Cyclobenzaprine HCl and excipients, Mixture 1:1 (mixed)” value [2, 6] was “physico-chemical interaction” and the “Interactions between Cyclobenzaprine HCl and excipients, Mixture 1:1 (milled)” value ([2]; citrate dihydrate) was “Chemical”. The “Interactions between Cyclobenzaprine HCl and excipients, Mixture 1:1 (milled)” value [2, 6] was “physico-chemical interaction”.
With `CCCCCCCCCCCCCCCCCCCCCC(=O)OCC(CO)OC(=O)CCCCCCCCCCCCCCCCCCCCC` (centres unmarked) [Glycerol dibehenate] the “Interactions between API and excipients, Mixture in formulation (1:1 ratio)” value [3] was “No interaction” and the “Interactions between API and excipients, Mixture in formulation (1:1 ratio)” value ([3]; listed as glycerol dibehenate) was “small physical interaction”.
With `CCCCCCCCCCCCCCCCCC(=O)O` [Stearic acid] the “Interactions between API and excipients, Mixture in formulation (1:1 ratio)” value [3] was “small physical interaction; also recorded: No interaction”.
For `O=C([O-])[O-].[Na+].[Na+]` [Sodium carbonate], the “Interactions between API and excipients, Mixture in formulation (1:1 ratio)” value [3] was “small physical interaction; also recorded: No interaction”.
For `O=P([O-])([O-])O.[Na+].[Na+]` [Sodium phosphate dibasic], the “Interactions between API and excipients, Mixture in formulation (1:1 ratio)” value [3] was “Physical interaction”.
In the case of `CCCCCCCCCCCCCCCCCCOC(=O)/C=C/C(=O)[O-].[Na+]` [Sodium stearyl fumarate], the “Excipient reactions with API, Mixture 1:1” value ([1]; fumarate) is reported as “Physical interaction”, the “Excipient reactions with API, Mixture 1:1” value [1, 7] is reported as “physical interaction” and the “Excipient reactions with API, Mixture in formulation ratio” value ([1]; fumarate) is reported as “No interaction”. For the same compound, the “Excipient reactions with API, Mixture in formulation ratio” value [1, 7] was “small physical interaction”, the “Interactions between API and excipients, Mixture in formulation (1:1 ratio)” value ([3]; fumarate) was “Physical interaction” and the “Interactions between API and excipients, Mixture in formulation (1:1 ratio)” value [3, 7] was “physical interaction”.
With `O.O.O=P([O-])([O-])O.[Na+].[Na+]` [Di Sodium phosphate di hydrate, Di Sodium phosphate dihydrate] the “Interactions between Cyclobenzaprine HCl and excipients, Mixture 1:1 (mixed)” value ([2]; Sodium phosphate dihydrate) was “Chemical”, the “Interactions between Cyclobenzaprine HCl and excipients, Mixture 1:1 (mixed)” value [2, 8] was “a physical interaction and partial solubilization” and the “Interactions between Cyclobenzaprine HCl and excipients, Mixture 1:1 (milled)” value ([2]; Sodium phosphate dihydrate) was “Chemical”. The “Interactions between Cyclobenzaprine HCl and excipients, Mixture 1:1 (milled)” value [2, 8] was “physical interaction”.
